# Test results published in patent US8933031B2, “Polypeptide inhibiting angiogenesis and application thereof” (Shanghai First People's Hospital, priority 2008, dated 2015).
# Assays:
# [1] = system: chick embryo chorioallantoic membrane; format: in vivo; conditions: 10 μg or 50 μg AU6 on filter paper, 2 days, vs PBS control group
# Description: 1.2 Preparation of Model and Intervention Test: The chick fertile eggs of 1-2 days old were randomly grouped into 3 groups, which were respectively a control group, a 10 μg AU6 intervention group, and a 50 μg AU6 intervention group, with 9-15 eggs for each group. The surface of the fertile eggs was cleansing with tap water, and then the eggs were soaked in 0.2% benzalkonium bromide (bromo-geramine) solution for 5-10 minutes. The eggs were placed with the blunt end upward, and hatched in an incubator under 37° C. and 60-70% humidity. The eggs were overturned for at least two times per day, and were hatched for 5 days with 24 hours as one day. Under sterile condition, a small hole of about 1-2cm^2 was created at the blunt end (air chamber end) with a nipper. […] Whatman filter papers with a diameter of 5mm were used as a sample carrier, each of which adsorbed 5 μl of PBS solution containing 0 μg, 10 μg or 50 μg of AU6. After air drying, the papers were placed into the center of the chorioallantoic membrane. […]
# 1.3 Counting the Number of Micrangiums in the Chorioallantoic Membrane: the adhesive tape was removed, and the micrangiums newly generated on the chorioallantoic membrane were observed. The number of micrangiums (with diameter no greater than 10 μm) within 5 mm around the filter paper for each group was counted under stereomicroscope. […]
# [2] = system: corneal angiogenesis induced by VEGF; format: in vivo
# Source text: 1.2 Experimental Animal and Material: Healthy, male C57B1/6 mice of 5-6 weeks old weighing about 20 g were purchased from Laboratory Animal Center of Chinese Academy of Sciences. Sucrose octasulfate-aluminum complex was purchased from Sigma-Aldrich, USA. PolyHEMA (poly(2-hydroxyethylmethacylate)) was purchased from Aldrich, USA. And human recombinant VEGF165 was purchased from SIGMA, USA.
# 1.2 Preparation of Model and Intervention Test: 12% PolyHEMA in an ethanol solution was mixed with an equal volume of normal saline solution containing sucrose octasulfate-aluminum complex powder, thus forming blank slow-release particles with a volume of 0.35 mm*0.35 mm*0.20 mm. 160 ng of VEGF and different amounts (0 μg, 1.0 μg, 2.0 μg) of the small peptides were added into said particles. The resultant products were stored at −20° C., ready for use. The above operations were done under a sterile condition. Thirty C57B1/6 mice (30 eyes) were randomly grouped into a control group (VEGF group), VEGF+1.0 μg AU6 group, and VEGF+2.0 μg AU6 group, with 10 eyes for each group. Under a sterile condition, 23G syringe needle was used to perform blunt separation between the layers of the corneal stroma in the experimental eyes, so as to form a pouch of 0.5 mm*0.5 mm. The particles containing 160 ng VEGF and different amounts of small peptides were implanted into the pouches in the ocular cornea in the mice of each group, and were made to have a distance of 0.6-0.8 mm from limbus. After operation, 0.5% aureomycin oculentum was applied to the eyes to prevent infection and reduce irritation. Photos were obtained 7 days after operation to observe the growth of newly generated blood vessel in the cornea, and a histopathological examination was performed concurrently.
# 1.3 Quantitative Measurement of Corneal Neovascularization: the length of the new blood vessels grown from limbus was measured 7 days after operation. The area of the new blood vessel was calculated based on the longest blood vessel which had less continuous bending and which grew toward the slow release particles. Formula is as follows: Area (mm^2)=[…]*π*VL (mm)*CN*0.4 (mm), wherein VL is the length of the longest new blood vessel grown from limbus to the cornea (maximal vessel length), and CN represents the clock hours of corneal neovascularization (the cornea is dividing into clock hours).
# 1.4 Qualitative Observation of Corneal Neovascularization: Each group of animals was sacrificed by excessive anaesthesia 7 days after operation. The eyeballs were obtained under a sterile condition, and fixed in 10% neutral formaldehyde, and then subjected to histopathological examination. The samples were embedded within paraffin and cut into 3 μm sections, HE stained, and observed under light microscope.
# 1.5 Statistical Analysis: The experimental data were represented as x±s. The length of the longest new blood vessel in cornea, clock hours and area for each group were compared by one-way ANOVA. P<0.05 indicates statistical significance.
# [3] = system: retinal neovascularization induced by anoxia; format: in vivo; conditions: intravitreal AU6 (5 μg, 10 μg) 12 days after birth, read 17 days after birth, vs model-treated group
# Description: 1.1 Materials and Main Devices: Healthy, neonatal C57B1/6 mice, 7 days age, weighing about 4 g were purchased from Laboratory Animal Center of Chinese Academy of Sciences. The sex of the mice was not limited. FITC-dextran (molecular weight about 2*10^6) was purchased from SIGMA, USA.
# 1.2 Preparation of Model and Intervention Test: Neonatal mice of 10 nests were randomly grouped into 5 groups, which respectively were oxygen group, oxygen plus PBS group, oxygen plus 5 μg AU6 group, oxygen plus 10 μg AU6 group, and control group, with 10-11 mice for each group. Seven days after birth, except the control group, all of the other groups of mice were placed in an airproof drying cabinet together with their mother mice of the same nest. Wet pure oxygen was introduced into the drying cabinet, and the oxygen concentration in volume was maintained as 75%±5%. The oxygen concentration was measured every 3-6 hours by using oxygen meter. The control group was incubated normally in air. Twelve days after birth, 0.5 μl PBS solution containing respectively 0, 5 μg, and 10 μg AU6 were injected into the vitreous chambers of the mice in the oxygen plus PBS group and in the oxygen plus AU6 group (5 μg, and 10 μg).
# 1.3 FITC-dextran Retinal Angiography and Flat-mounts: Seventeen days after birth, 50 mg/ml FITC-dextran solution were perfused into the left ventricle of mice in each group. Then the eyeballs immediately were obtained, fixed in paraformaldehyde solution for 5-24 hours at 4° C. And then the retinas were isolated and flat-mounted. The morphological change of the retinal blood vessel was observed under fluorescence microscope.
# 1.4 Quantitative Measurement of Retinal Neovascularization: The animals in each group were sacrificed by excessive anaesthesia 17 days after birth. The eyeballs were obtained, and fixed in 10% neutral formaldehyde, and then subjected to histopathological examination. […] The numbers of the nucleus of the vascular endothelial cells which broke through the retinal inner limiting membrane were counted under light microscope. […]
# [4] = Water solubility of synthesized polypeptide; format: physicochemical; conditions: white powder
# [5] = 160 ng VEGF + 1.0 or 2.0 μg AU6 slow-release particles, 7 days after operation, vs control group
# [6] = 7 days after operation, AU6 intervention group
substance,measurement,setting,value
YRGKKA ((1)..(6) Peptide AU6 for inhibiting angiogenesis),numbers of micrangiums within 5 mm around the filter paper,[1],significantly less
same,clock hours of corneal neovascularization,[2]; [5],significant decrease
same,longest blood vessel length of the new blood vessel,[2]; [5],significant decrease
same,area of blood vessel,"[2]; 160 ng VEGF + 1.0 or 2.0 μg AU6 slow-release particles, 7 days after operation, vs control group, calculated from VL and CN",significant decrease
same,blood capillary lumens in corneal stroma (HE stained sections),[2]; [6],very few
same,oedema in the corneal tissue (HE stained sections),[2]; [6],no obvious oedema
same,toxicity to each layer of corneal tissues,"[2]; mouse, in vivo",not observed
same,neovascular clusters (FITC-dextran retinal flat-mounts),[3],reduced
same,non-perfusion area (FITC-dextran retinal flat-mounts),[3],narrowed
same,nucleus of vascular endothelial cells which broke through the inner limiting membrane,[3],obviously less
same,water solubility,[4],good
